ChEMBL document CHEMBL1201862, “PubChem BioAssay data set” (2004)
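Exposure lasted 48 hours, with cells grown in 96-well plates and compounds tested at five concentrations. GI50 marks 50% less growth.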 Active and inactive are the calls of the source. Cut-off read from the data, not from the text of the source: active = GI50 up to about 1.1 µM and inactive = higher.

Experiments:
Assay in all cases: inhibition of tumour cell growth, NCI panel, 48 h
SF-539 = test system: SF-539
M14 = test system: M14
MOLT-4 = test system: MOLT-4
DU-145 = test system: DU-145
SK-MEL-5 = test system: SK-MEL-5
UO-31 = test system: UO-31
CCRF-CEM = test system: CCRF-CEM
KM12 = test system: KM12
UACC-257 = test system: UACC-257
A498 = test system: A498
NCI-H522 = test system: NCI-H522
Malme-3M = test system: Malme-3M
MDA-MB-435 = test system: MDA-MB-435
SF-295 = test system: SF-295
UACC-62 = test system: UACC-62
LOX IMVI = test system: LOX IMVI
RPMI-8226 = test system: RPMI-8226
MDA-N = test system: MDA-N
OVCAR-3 = test system: OVCAR-3
SK-OV-3 = test system: SK-OV-3

Measured: GI50

CCOC(=O)C(C(=O)OCC)=C1NC2(c3ccccc3Nc3ccc(C)cc32)C(C(=O)OC)S1 (configuration not stated)
inactive: SF-539 42.2 µM | M14 27.6 µM | MOLT-4 5.58 µM | DU-145 50.6 µM | SK-MEL-5 13.9 µM | UO-31 16.5 µM | CCRF-CEM 15.1 µM | KM12 14.2 µM | UACC-257 26.4 µM | A498 10.1 µM | NCI-H522 13.6 µM | Malme-3M 22.5 µM | MDA-MB-435 30.5 µM | SF-295 10.8 µM | UACC-62 20.8 µM | LOX IMVI 33.5 µM | RPMI-8226 8.93 µM | MDA-N 32.9 µM | OVCAR-3 23.1 µM | SK-OV-3 > 100 µM

Cc1c(/N=N/c2ccc([N+](=O)[O-])cc2)nc2scc(-c3ccccc3)n12
inactive: SF-539 82.6 µM | M14 > 100 µM | MOLT-4 19.6 µM | DU-145 > 100 µM | SK-MEL-5 > 100 µM | UO-31 58.7 µM | CCRF-CEM 21.7 µM | KM12 53.5 µM | UACC-257 > 100 µM | A498 > 100 µM | NCI-H522 46.5 µM | Malme-3M > 100 µM | MDA-MB-435 > 100 µM | SF-295 52.7 µM | UACC-62 > 65.6 µM | LOX IMVI 57.1 µM | RPMI-8226 67.1 µM | MDA-N > 100 µM | OVCAR-3 > 100 µM | SK-OV-3 > 100 µM

C/C(=C\CNc1ncnc2c1ncn2CCC(=O)OC(C)(C)C)CO
inactive: SF-539 > 100 µM | M14 > 100 µM | MOLT-4 > 100 µM | DU-145 > 100 µM | SK-MEL-5 > 100 µM | UO-31 > 100 µM | CCRF-CEM > 100 µM | KM12 > 100 µM | UACC-257 > 100 µM | A498 > 100 µM | NCI-H522 > 100 µM | Malme-3M > 100 µM | MDA-MB-435 > 100 µM | SF-295 > 100 µM | UACC-62 > 100 µM | LOX IMVI > 100 µM | RPMI-8226 > 100 µM | MDA-N > 100 µM | OVCAR-3 > 100 µM | SK-OV-3 > 100 µM

CCOC(=O)NC(C(F)(F)F)(C(F)(F)F)P(=O)(OCC(C)C)OCC(C)C
inactive: SF-539 15.7 µM | M14 11.6 µM | DU-145 35 µM | SK-MEL-5 12.1 µM | UO-31 7.35 µM | CCRF-CEM 2.67 µM | KM12 14 µM | A498 41.9 µM | NCI-H522 2.49 µM | Malme-3M 16.2 µM | MDA-MB-435 15.5 µM | SF-295 24.8 µM | UACC-62 11.7 µM | LOX IMVI 4.49 µM | RPMI-8226 14.4 µM | MDA-N 6.04 µM | OVCAR-3 19.1 µM | SK-OV-3 13.7 µM

COC(=O)NC(Nc1ccccn1)(C(F)(F)F)C(F)(F)F
inactive: SF-539 > 100 µM | M14 > 100 µM | MOLT-4 > 100 µM | DU-145 > 100 µM | SK-MEL-5 > 100 µM | UO-31 > 100 µM | CCRF-CEM > 100 µM | KM12 > 100 µM | UACC-257 > 100 µM | A498 > 100 µM | NCI-H522 > 100 µM | Malme-3M > 100 µM | MDA-MB-435 > 100 µM | UACC-62 > 100 µM | LOX IMVI > 100 µM | RPMI-8226 > 100 µM | MDA-N > 100 µM | OVCAR-3 > 100 µM | SK-OV-3 > 100 µM
